Measurements as given in patent US20140161720A1, “TREATMENT OF ANGIOGENIC- OR VASCULAR-ASSOCIATED DISEASES” (THE GENERAL HOSPITAL CORPORATION, priority 2011, published 2014).
“Also recorded” adds a separate entry of the source.

Key:
[1] = target: T1, IDO (Homo sapiens, UniProt P14902); assay: IDO activity in HEK 293 cells expressing IDO (kynurenine, spectrophotometric); assay type: cell-based; settings: kynurenine readout, 10-dose threefold dilutions
T1 construct: expressed in transfected cells; host or cells: HEK 293
Protocol: The IDO activity was analyzed by the presence of kynurenine with a spectrophotometric assay. DAL was tested in a 10-dose IC50 mode with threefold serial dilutions (0.1 μM, 0.3 μM, 0.9 μM, 2.7 μM, 8.1 μM, 24.3 μM, 72.9 μM, 218.7 μM, 656 μM and 2000 μM). […] DAL binds concurrently with the tryptophan substrate (Trp) and prevents the closure of the binding site lid that is critical for the reaction catalysis.
To determine whether DAL is an immuno-modulator, the effect of DAL on IDO activity was measured. To monitor IDO enzymatic activity, HEK 293 cells were engineered to express IDO and treated with DAL in a 10-dose IC50 mode with threefold serial dilutions. The IDO activity was analyzed by the presence of kynurenine (the first stable catabolite downstream of IDO) with a spectrophotometric assay (Katz et al., 2008; Littlejohn et al., 2000). […] Because DAL inhibits recombinant purified IDO in the enzymatic assay, it is likely that DAL physically interacts with IDO1, forming a complex that represses IDO1 activity. To elucidate a possible structural basis for this inhibition, comparative modeling and molecular docking were used (FIGS. 9A-9D). […] It was therefore assessed that if lid closure may be a critical step for the efficient reaction catalysis by IDO. […]

[2] = tested on: Rac1; assay: Rac1 ubiquitination, Duolink in situ proximity assay in HUVECs; assay type: cell-based, human; settings: HUVEC, lactacystin or MG-132 pretreatment, DAL 10 μM 24 hours
Protocol: (§1) HUVEC cells were treated with 10 μM of DAL for 24 hours and then lysed. A western blot with anti-human Rac1 antibody is shown on top panel while the bottom panel represents a loading control. […] To enhance ubiquitination events, HUVEC cells were pretreated with the proteasome inhibitors lactacystin (2.5 mM) or MG-132 (0.2 mM) for one hour and subsequently treated with DAL (10 μM) of DAL for 24 hours. Duolink in situ was used for the detection of ubiquitinated Rac1 in DAL treated and untreated HUVEC cells. For the two Duolink PLA probes, primary mouse antibodies raised against human Rac1 and primary rabbit anti-ubiquitin were used. Fluorescent spots represent ubiquitinated Rac1. The nuclei with additionally stained DAPI.
(§2) However, protein levels of Rac1 were reduced after DAL treatment (FIG. 6B). Next, it was assessed whether DAL can enhance Rac1 ubiquitination and therefore promote or speed up degradation (31-34). For the detection of Rac1 ubiquitination in HUVECs, Rac1-ubiquitin binding in situ was identified using a Duolink molecular proximity assay. In this assay, molecules thought to interact are targeted with fluorescent antibodies in situ, and individual interactions generate a signal detectable by microscopy only if secondary antibodies are located in close proximity to each other. […]

[3] = tested on: HUVEC; assay: Scratch wound-healing motility assay; assay type: cell-based, human; settings: HUVEC monolayer, DAL 5 μM, 24 hours after wounding
Protocol: For F-actin visualization, HUVECs were plated and treated with saline or DAL (10 μM) for three hours. After fixing and permeabilizing these cultured cells, the cells were subsequently stained with phalloidin. […] Existing cordlike structures, when exposed to 10 μM of DAL for 3 hours, were also disrupted. […] HUVEC monolayers were disrupted mechanically with a pipette tip and the migration of cells to “heal” the wound was monitored using microscopy.
To assess whether DAL affects EC functions, in vitro models of vascular network formation from HUVECs were used. After overnight cultivation in matrigel, HUVECs spontaneously assemble into cord-like structures that resemble vascular networks. […] Since DAL affects actin cytoskeleton assembly, the effect of DAL on cell motility was next assessed. A scratch wound assay was utilized to study HUVEC motility based on the healing rate of a wounded monolayer.

[4] = tested on: Rac1; assay: Rac1 protein level by western blot in HUVECs; assay type: cell-based, human; settings: HUVEC, 10 μM for 24 hours
Protocol: as §1, §2

[5] = target: recombinant purified IDO (Homo sapiens, UniProt P14902); settings: cited (He et al., 2008); cited from earlier work
[6] = Pharmacokinetics after intraperitoneal administration; assay type: in vivo; settings: after i.p. dosing, 100% DMSO formulation, male CD-1 mice
From the text: FIG. 8 is a graph showing pharmacokinetic parameters after intraperitoneal administration of DAL.

[7] = tested on: zebrafish caudal fin regenerating vessels; assay: Caudal fin amputation, blood vessel regeneration; assay type: in vivo
Protocol: For the regeneration experiments, caudal fins of zebrafish were amputated at approximately the 50% proximal-distal level (21). The amputated fish were kept in individual 250-ml fish tanks, and at least five fish were used in each group. Staging for normal blood vessel regeneration was carried out at 25° C. with TG(fli1:EGFP)y1 fish, with the same fin ray and vessels of each fish was photographed at different time intervals during the course of the time-lapse study.
To examine whether DAL has a similar antivascular effect on neovasculature in adult zebrafish, neovascularization was induced by amputating the caudal fin at the ˜50% proximal-distal level and fin rays and vessels were imaged from each fish over time. In control zebrafish caudal fins, amputated blood vessels healed their ends by 24 h post-amputation and then reconnected arteries and veins through anastomosis, with blood flow resuming at wound sites by 48 h after amputation (FIG. 2B).

[8] = tested on: vasculature in adult fish; assay: Effect on vasculature in adult zebrafish; assay type: in vivo; settings: mature vasculature

recombinant purified IDO, sequence (P14902 whole entry): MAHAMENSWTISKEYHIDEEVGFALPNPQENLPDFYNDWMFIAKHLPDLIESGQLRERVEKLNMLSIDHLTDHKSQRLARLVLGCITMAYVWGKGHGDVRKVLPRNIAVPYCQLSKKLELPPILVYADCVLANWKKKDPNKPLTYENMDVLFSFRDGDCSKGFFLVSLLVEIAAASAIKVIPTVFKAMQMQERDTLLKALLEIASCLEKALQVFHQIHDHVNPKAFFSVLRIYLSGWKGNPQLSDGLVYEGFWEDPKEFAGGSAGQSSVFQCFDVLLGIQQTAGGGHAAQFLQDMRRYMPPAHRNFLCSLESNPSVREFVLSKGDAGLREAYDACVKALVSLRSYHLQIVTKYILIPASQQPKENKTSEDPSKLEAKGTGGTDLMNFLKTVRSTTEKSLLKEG
T1 sequence (P14902 whole entry): as above

## CC1(C)C=CC2=C(O1)C(=O)c1ccccc1C2=O [DAL, dehydro-alpha-lapachone]
[1]
  IC50: ~300 nM
[2]
  Rac1 ubiquitination: more ubiquitinated Rac1 protein; also recorded: increases
[3]
  wound healing / cell motility: did not move and failed to close the wound; also recorded: slowed healing
[4]
  protein levels of Rac1: reduced; also recorded: decreases
[5]
  mode of IDO inhibition with respect to L-tryptophan: non-competitive
[6]
  half-life in plasma: 1.7 h
[7]; 9 days after amputation
  anastomotic bridges at the amputation plane: did not find such bridges
[7]; caudal fin after amputation
  anastomosis and plexus formation of regenerating vessels: defects in anastomosis and plexus formation
[8]
  effects on the vasculature in adult fish: did not show any effects
